Reference: article PMC7162861, “Synthesis, cytotoxicity, pharmacokinetic profile, binding with DNA and BSA of new imidazo[1,2-a]pyrazine-benzo[d]imidazol-5-yl hybrids” (Scientific Reports, 2020)

How the values were obtained:
SF-295 = test: NCI cytotoxicity screen, CNS Cancer panel; type: cell-based; conditions: five dose 0.01–100 µM
Experimental: (§1) Cytotoxicity was performed at National Cancer Institute (NCI), Bethesda, USA as per their protocols.

SF-539 = test: NCI cytotoxicity screen, CNS Cancer panel; type: cell-based
Experimental: as §1

SF-268 = test: NCI cytotoxicity screen, CNS Cancer panel; type: cell-based
Experimental: as §1

A498 = test: NCI cytotoxicity screen, Renal Cancer panel; type: cell-based
Experimental: as §1

SN12C = test: NCI cytotoxicity screen, Renal Cancer panel; type: cell-based
Experimental: as §1

CAKI-1 = test: NCI cytotoxicity screen, Renal Cancer panel; type: cell-based
Experimental: as §1

OVCAR-3 = test: NCI cytotoxicity screen, Ovarian Cancer panel; type: cell-based, human
Experimental: as §1

UACC-62 = test: NCI cytotoxicity screen, Melanoma panel; type: cell-based, human; conditions: five dose 0.01–100 µM
Experimental: as §1

M14 = test: NCI cytotoxicity screen, Melanoma panel; type: cell-based, human
Experimental: as §1

LOX IMVI = test: NCI cytotoxicity screen, Melanoma panel; type: cell-based, human
Experimental: as §1

HCC-2998 = test: NCI cytotoxicity screen, Colon Cancer panel; type: cell-based, human
Experimental: as §1

KM12 = test: NCI cytotoxicity screen, Colon Cancer panel; type: cell-based, human; conditions: five dose 0.01–100 µM
Experimental: as §1

SW-620 = test: NCI cytotoxicity screen, Colon Cancer panel; type: cell-based, human; conditions: five dose 0.01–100 µM
Experimental: as §1

OVCAR-8 = test: NCI cytotoxicity screen, Ovarian Cancer panel; type: cell-based
Experimental: as §1

SK-OV-3 = test: NCI cytotoxicity screen, Ovarian Cancer panel; type: cell-based
Experimental: as §1

IGROV1 = test: NCI cytotoxicity screen, Ovarian Cancer panel; type: cell-based; conditions: Homo sapiens, IGROV-1, five dose 0.01–100 µM
Experimental: as §1

OVCAR-4 = test: NCI cytotoxicity screen, Ovarian Cancer panel; type: cell-based
Experimental: as §1

OVCAR-5 = test: NCI cytotoxicity screen, Ovarian Cancer panel; type: cell-based; conditions: Homo sapiens
Experimental: as §1

NCI/ADR-RES = test: NCI cytotoxicity screen, Ovarian Cancer panel; type: cell-based
Experimental: as §1

HT29 = test: NCI cytotoxicity screen, Colon Cancer panel; type: cell-based
Experimental: as §1

HCT-15 = test: NCI cytotoxicity screen, Colon Cancer panel; type: cell-based; conditions: Homo sapiens
Experimental: as §1

HCT-116 = test: NCI cytotoxicity screen, Colon Cancer panel; type: cell-based; conditions: Homo sapiens, five dose 0.01–100 µM
Experimental: as §1

COLO 205 = test: NCI cytotoxicity screen, Colon Cancer panel; type: cell-based
Experimental: as §1

[1] = Homo sapiens, five dose 0.01–100 µM
[2] = Homo sapiens, five dose 0.01–100 µM, read-out: LC50 (the source's name)

c1cn2cc(-c3ccc4ncn(C5CCCCC5)c4c3)nc(-c3ccc4c(c3)ncn4C3CCCCC3)c2n1 [Compound 31, 8-(1-cyclohexyl-1H-benzo[d]imidazol-5-yl)-6-(1-cyclohexyl-1H-benzo[d]imidazol-6-yl)imidazo[1,2-a]pyrazine]
CC50 (SF-295; Homo sapiens, read-out: LC50 (the source's name)): 5.8 µM | TGI (SF-295): 3.15 µM | GI50 (SF-539; Homo sapiens): 1.63 µM | LC50 (concentration killing 50% of cells) (SF-539; [1]): 6.1 µM | TGI (SF-539; five dose 0.01–100 µM): 3.15 µM | GI50 (SF-268; Homo sapiens): 1.59 µM | CC50 (SF-268; [2]): 6.23 µM | TGI (SF-268; five dose 0.01–100 µM): 3.15 µM | GI50 (A498; Homo sapiens): 1.77 µM | CC50 (A498; [2]): 5.85 µM | TGI (A498; five dose 0.01–100 µM): 3.22 µM | GI50 (SN12C; Homo sapiens): 2.05 µM | CC50 (SN12C; [2]): > 1 µM | TGI (SN12C; five dose 0.01–100 µM): 4.53 µM | TGI (CAKI-1; CAKI-1, five dose 0.01–100 µM): 2.95 µM | GI50 (CAKI-1; Homo sapiens, CAKI-1): 1.46 µM | inhibition at 10 µM (CAKI-1; Homo sapiens, CAKI-1, read-out: Percent growth inhibition): 82.8% | CC50 (CAKI-1; Homo sapiens, CAKI-1, five dose 0.01–100 µM, read-out: LC50 (the source's name)): 5.97 µM | GI50 (OVCAR-3; Homo sapiens, OVCAR-3): 1.83 µM | CC50 (OVCAR-3; Homo sapiens, OVCAR-3, read-out: LC50): 6.2 µM | TGI (OVCAR-3; OVCAR-3, five dose 0.01–100 µM): 3.36 µM | GI50 (UACC-62; Homo sapiens): 1.7 µM | TGI (UACC-62): 3.36 µM | GI50 (M14; Homo sapiens): 1.77 µM | TGI (M14; five dose 0.01–100 µM): 3.65 µM | GI50 (LOX IMVI; Homo sapiens): 1.68 µM | TGI (LOX IMVI; five dose 0.01–100 µM): 3.22 µM | TGI (HCC-2998; HCC-2998, five dose 0.01–100 µM): 3.46 µM | GI50 (HCC-2998; Homo sapiens, HCC 2998): 1.81 µM | GI50 (KM12; Homo sapiens): 2.01 µM | TGI (KM12): 3.83 µM | GI50 (SW-620; Homo sapiens): 2.08 µM | TGI (SW-620): 3.97 µM | GI50 (OVCAR-8; Homo sapiens): 2.55 µM | CC50 (OVCAR-8; [2]): > 1 µM | TGI (OVCAR-8; five dose 0.01–100 µM): 9.49 µM | GI50 (SK-OV-3; Homo sapiens): 2.27 µM | CC50 (SK-OV-3; [2]): 7.42 µM | TGI (SK-OV-3; five dose 0.01–100 µM): 4.10 µM | GI50 (IGROV1): 2.04 µM | GI50 (OVCAR-4; Homo sapiens, OVCAR-4): 2.17 µM | inhibition at 10 µM (OVCAR-4; Homo sapiens, OVCAR-4, read-out: Percent growth inhibition): 97.2% | CC50 (OVCAR-4; Homo sapiens, OVCAR-4, five dose 0.01–100 µM, read-out: LC50 (the source's name)): > 1 µM | TGI (OVCAR-4; OVCAR-4, five dose 0.01–100 µM): 6.30 µM | GI50 (OVCAR-5): 2.43 µM | CC50 (OVCAR-5; five dose 0.01–100 µM, read-out: LC50 (the source's name)): > 1 µM | GI50 (NCI/ADR-RES; Homo sapiens): 2.34 µM | CC50 (NCI/ADR-RES; [2]): > 1 µM | inhibition at 10 µM (NCI/ADR-RES; Homo sapiens, read-out: Percent growth inhibition): 98.9% | TGI (NCI/ADR-RES; five dose 0.01–100 µM): 7.33 µM | TGI (HT29; HT29, five dose 0.01–100 µM): 5.20 µM | GI50 (HT29; Homo sapiens, HT-29): 2.44 µM | CC50 (HT29; Homo sapiens, HT-29, HT29, five dose 0.01–100 µM, read-out: LC50 (the source's name)): > 1 µM | GI50 (HCT-15): 2.07 µM | GI50 (HCT-116): 1.7 µM | GI50 (COLO 205; Homo sapiens): 1.93 µM | LC50 (COLO 205; [1]): 7.44 µM | TGI (COLO 205; five dose 0.01–100 µM): 3.79 µM
